Among the test systems are U251 CNS; SF-539 CNS; RPMI-8226 leukemia; BT-549 breast; A498 renal; SK-MEL-28 melanoma; KM12 colon; SF-268 CNS; A549 NSCLC; SW-620 colon.
Assay in all cases: inhibition of tumour cell growth, NCI panel, 48 h

SMILES strings stand for the structures. Where “and” joins values, the source holds several entries; their conditions need not be identical. Equal values may be shown once.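 Interpolation was linear, between the two tested concentrations surrounding the appropriate level; five concentrations were tested over 48 hours in 96-well plates. Here, GI50 denotes the concentration required for 50% inhibition of growth. TGI marks complete inhibition of growth.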

As to `COc1cc2c(cc1OC)[C@@H](Nc1ccc(C#N)cc1)C1COC(=O)[C@@H]1C2c1cc(OC)c(O)c(OC)c1` (some centres not stated), the GI50 in the assay on U251 CNS was 0.0457 µM and 0.178 µM; in the assay on SK-MEL-28 melanoma, 3.4 µM and 6.94 µM; in the assay with KM12 colon, 1.43 µM; in the assay with SF-268 CNS it was 0.342 µM and 0.663 µM; in the assay with A549 NSCLC, 0.147 µM and 0.1 µM. The TGI in the assay on SF-539 CNS is 0.856 µM; in the assay with RPMI-8226 leukemia, 0.225 µM and 0.65 µM; in the assay on BT-549 breast, 9.78 µM; with A498 renal, 0.794 µM; in the assay with SK-MEL-28 melanoma, 95 µM and > 100 µM; in the assay on A549 NSCLC it was 7.31 µM and 4.95 µM. Besides, the TGI with SW-620 colon was 18.8 µM and > 100 µM.

Regarding `Nc1nccc(-c2c(-c3ccc(F)cc3)ncn2C2CCNCC2)n1`, the GI50 was 3.67 µM and 1.95 µM in the assay on U251 CNS; 23.5 µM and 8.37 µM in the assay on SF-539 CNS; 12.6 µM and 7.07 µM with RPMI-8226 leukemia; 17.2 µM and 12 µM with BT-549 breast; 8.88 µM and 2.16 µM in the assay on A498 renal; 10.2 µM and 8.41 µM with SK-MEL-28 melanoma. For the same molecule, the GI50 with KM12 colon was 4.26 µM and 4.01 µM; with SF-268 CNS, 5.92 µM and 2.76 µM; with A549 NSCLC, 1.97 µM and 1.66 µM; with SW-620 colon, 4.25 µM and 1.38 µM. The TGI in the assay with U251 CNS, with SF-539 CNS, in the assay with RPMI-8226 leukemia, in the assay on BT-549 breast, with A498 renal and in the assay with SK-MEL-28 melanoma was above 25 µM throughout. In addition, the TGI in the assay on KM12 colon, in the assay on SF-268 CNS, with A549 NSCLC and in the assay with SW-620 colon was above 25 µM in each case.

For `Cc1cccc(N(C)C(=O)[C@@H]2[C@H](O)CCN2c2nc(C)cc(C(F)(F)F)c2C#N)c1`, the GI50 is 28.8 µM with U251 CNS; 15.9 µM in the assay with SF-539 CNS; 16.3 µM with RPMI-8226 leukemia; 15.6 µM with BT-549 breast; 21.9 µM in the assay on A498 renal; 24.3 µM in the assay with SK-MEL-28 melanoma. Further, the GI50 was 28.2 µM in the assay on KM12 colon, 26.5 µM in the assay with SF-268 CNS, 21.9 µM in the assay with A549 NSCLC and 37.8 µM in the assay with SW-620 colon. Also, the TGI is above 100 µM in the assay on U251 CNS; 32.2 µM in the assay on SF-539 CNS; 41.6 µM in the assay on RPMI-8226 leukemia; 45.2 µM in the assay on BT-549 breast; 69.8 µM in the assay with A498 renal; above 100 µM with SK-MEL-28 melanoma. Also, the TGI in the assay on KM12 colon, in the assay with SF-268 CNS, in the assay on A549 NSCLC and in the assay on SW-620 colon was above 100 µM in each case.

Regarding `Cc1nc([P+](c2ccccc2)(c2ccccc2)c2ccccc2)c(Sc2sc(-c3ccccc3)nc2[P+](c2ccccc2)(c2ccccc2)c2ccccc2)o1`, the GI50 with U251 CNS was 0.344 µM; with SF-539 CNS, 2.3 µM; in the assay with RPMI-8226 leukemia it was 0.27 µM; with BT-549 breast it was 1.28 µM; in the assay with A498 renal it was 1.5 µM; in the assay on SK-MEL-28 melanoma it was 1.99 µM. Moreover, the GI50 was 1.39 µM in the assay on KM12 colon, 2.02 µM in the assay with SF-268 CNS, 1.87 µM in the assay with A549 NSCLC and 0.637 µM in the assay on SW-620 colon. Moreover, the TGI is 4.03 µM in the assay with U251 CNS; 7.34 µM in the assay with SF-539 CNS; 1.25 µM in the assay on RPMI-8226 leukemia; 6.24 µM with BT-549 breast; 4.68 µM with A498 renal; 10.5 µM in the assay on SK-MEL-28 melanoma. Further, the TGI stood at 3.35 µM with KM12 colon, 7.71 µM in the assay with SF-268 CNS, 10.7 µM in the assay with A549 NSCLC and 2.85 µM with SW-620 colon.

Take `O=C(CC(Cl)=C(Cl)Cl)Nc1ccccc1`: the GI50 in the assay with U251 CNS, with SF-539 CNS, in the assay on RPMI-8226 leukemia, with BT-549 breast, with A498 renal and in the assay with SK-MEL-28 melanoma was above 100 µM in each case. In addition, the GI50 in the assay on KM12 colon, in the assay on SF-268 CNS, in the assay on A549 NSCLC and in the assay with SW-620 colon was above 100 µM throughout. The TGI in the assay on U251 CNS, in the assay on SF-539 CNS, in the assay with RPMI-8226 leukemia, with BT-549 breast, with A498 renal and with SK-MEL-28 melanoma was above 100 µM in each case. Further, the TGI in the assay on KM12 colon, with SF-268 CNS, with A549 NSCLC and in the assay with SW-620 colon was above 100 µM each time.

With `COc1ccc(C2CC(c3cccc(Nc4ccnc5cc(Cl)ccc45)c3)=NN2C=O)cc1` (configuration not stated), the GI50 in the assay with U251 CNS is 0.435 µM; in the assay with SF-539 CNS, 0.785 µM; in the assay on RPMI-8226 leukemia, 3.64 µM; in the assay on BT-549 breast, 0.486 µM; in the assay with A498 renal it was 0.325 µM; in the assay with SK-MEL-28 melanoma, 1.13 µM. For the same molecule, the GI50 in the assay with KM12 colon was 0.4 µM; with SF-268 CNS, 1.37 µM; with A549 NSCLC, 0.527 µM; in the assay on SW-620 colon, 0.333 µM. The TGI in the assay with U251 CNS is 3.98 µM; with SF-539 CNS it was 8.42 µM; in the assay on RPMI-8226 leukemia it was above 24 µM; in the assay on BT-549 breast it was 9.86 µM; in the assay on A498 renal, 4.2 µM; in the assay with SK-MEL-28 melanoma, 25.6 µM. The TGI in the assay with KM12 colon is above 36.4 µM; in the assay with SF-268 CNS it was above 100 µM; in the assay on A549 NSCLC, 18.3 µM; in the assay on SW-620 colon it was above 100 µM.

For the molecule `CN(c1ncccc1CNc1nc(Nc2ccc3c(c2)CC(=O)N3)ncc1C(F)(F)F)S(C)(=O)=O`, the GI50 was 2.17 µM and 2.76 µM in the assay with U251 CNS; 1.96 µM and 2.35 µM in the assay on SF-539 CNS; 2.75 µM and 2.39 µM with RPMI-8226 leukemia; 2.21 µM and 2.53 µM in the assay with BT-549 breast; 2.81 µM with A498 renal; 2.07 µM and 2.92 µM in the assay with SK-MEL-28 melanoma. The GI50 in the assay with KM12 colon is 0.367 µM and 0.425 µM; in the assay on SF-268 CNS, 2.33 µM and 2.65 µM; in the assay with A549 NSCLC, 2.56 µM and 2.92 µM; in the assay on SW-620 colon, 1.56 µM and 2.89 µM. For the same molecule, the TGI with U251 CNS is above 47.3 µM; in the assay with SF-539 CNS, 5.18 µM and 6.93 µM; in the assay with RPMI-8226 leukemia, 10.2 µM and 6.94 µM; in the assay with BT-549 breast it was 7 µM and 9.25 µM; with A498 renal, 7.14 µM; in the assay with SK-MEL-28 melanoma, 6.58 µM and > 10 µM. Also, the TGI was 4.52 µM and 7.35 µM with KM12 colon; 13 µM and > 10 µM with SF-268 CNS; 12.2 µM and > 10 µM in the assay on A549 NSCLC; above 32.7 µM in the assay on SW-620 colon.

The record behind these values is PubChem BioAssay (NCI).
